Where “and” joins values, the source holds several entries; their conditions need not be identical. Equal values may be shown once. Toxic doses and inconclusive results are not listed.
Test system: P388 leukemia ip, CD2F1 mice, survival T/C
Experiment: NCI In Vivo Anticancer Drug Screen. Data for tumor model P388 Leukemia (intraperitoneal) in CD2F1 (CDF1) mice
Conditions: endpoint: median survival time, higher = longer survival
Outline: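 Mice carrying the transplanted tumor received test compound or vehicle. Survival was recorded in each group, and the value is the treated-group measurement divided by that of the vehicle-treated control group.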

[1] = dose: 100.0 mg/kg/injection, schedule: Q04DX002 (ip), vehicle: Klucel (hydroxypropylcellulose) (HPC)
[2] = dose: 200.0 mg/kg/injection, schedule: Q04DX002 (ip), vehicle: Klucel (hydroxypropylcellulose) (HPC)
[3] = dose: 50.0 mg/kg/injection, schedule: Q01DX005 (ip), vehicle: Klucel (hydroxypropylcellulose) (HPC)
[4] = dose: 100.0 mg/kg/injection, schedule: Q01DX005 (ip), vehicle: Klucel (hydroxypropylcellulose) (HPC)
[5] = dose: 200.0 mg/kg/injection, schedule: Q01DX005 (ip), vehicle: Klucel (hydroxypropylcellulose) (HPC)
[6] = dose: 12.5 mg/kg/injection, schedule: Q01DX009 (ip), vehicle: saline
[7] = dose: 25.0 mg/kg/injection, schedule: Q01DX009 (ip), vehicle: saline
[8] = dose: 50.0 mg/kg/injection, schedule: Q01DX009 (ip), vehicle: saline
[9] = dose: 100.0 mg/kg/injection, schedule: Q01DX009 (ip), vehicle: saline
[10] = dose: 25.0 mg/kg/injection, schedule: Q01DX009 (ip), vehicle: saline with Tween-80
[11] = dose: 50.0 mg/kg/injection, schedule: Q01DX009 (ip), vehicle: saline with Tween-80
[12] = dose: 60.0 mg/kg/injection, schedule: Q01DX005 (ip), vehicle: saline with Tween-80
[13] = dose: 120.0 mg/kg/injection, schedule: Q01DX005 (ip), vehicle: saline with Tween-80
[14] = dose: 240.0 mg/kg/injection, schedule: Q01DX005 (ip), vehicle: saline with Tween-80
[15] = dose: 200.0 mg/kg/injection, schedule: Q01DX009 (ip), vehicle: saline
[16] = dose: 100.0 mg/kg/injection, schedule: Q01DX009 (ip), vehicle: saline with Tween-80
[17] = dose: 50.0 mg/kg/injection, schedule: Q01DX005 (ip), vehicle: saline with Tween-80
[18] = dose: 100.0 mg/kg/injection, schedule: Q01DX005 (ip), vehicle: saline with Tween-80
[19] = dose: 100.0 mg/kg/injection, schedule: Q04DX003 (ip), vehicle: Klucel (hydroxypropylcellulose) (HPC)
[20] = dose: 200.0 mg/kg/injection, schedule: Q04DX003 (ip), vehicle: Klucel (hydroxypropylcellulose) (HPC)
[21] = dose: 50.0 mg/kg/injection, schedule: Q01DX009 (ip), vehicle: Klucel (hydroxypropylcellulose) (HPC)
[22] = dose: 100.0 mg/kg/injection, schedule: Q01DX009 (ip), vehicle: Klucel (hydroxypropylcellulose) (HPC)
[23] = dose: 200.0 mg/kg/injection, schedule: Q01DX009 (ip), vehicle: Klucel (hydroxypropylcellulose) (HPC)

N#CC1C(c2ccc(Cl)cc2)C(C(N)=O)C(=O)NC1(O)c1ccccc1 (centres undefined)
T/C [1]: 100 % of control
T/C [2]: 99 % of control
T/C (dose: 400.0 mg/kg/injection, schedule: Q04DX002 (ip), vehicle: Klucel (hydroxypropylcellulose) (HPC)): 98 % of control

C[Si](C)(C)N1[Si](C)(C)N[Si](C)(C)N([Si](C)(C)F)[Si]1(C)C
T/C [3]: 113 % of control
T/C [4]: 105 % of control
T/C [5]: 104 % of control

CC1=CC(C)C/C=C/C2C3OC3(C)C(C)C3C(Cc4c[nH]c5ccccc45)NC(=O)C23C(=O)C=CC(=O)C1O (centres undefined)
T/C (dose: 0.2 mg/kg/injection, schedule: Q01DX005 (ip), vehicle: Klucel (hydroxypropylcellulose) (HPC)): 102 % of control
T/C (dose: 0.4 mg/kg/injection, schedule: Q01DX005 (ip), vehicle: Klucel (hydroxypropylcellulose) (HPC)): 97 % of control
T/C (dose: 0.8 mg/kg/injection, schedule: Q01DX005 (ip), vehicle: Klucel (hydroxypropylcellulose) (HPC)): 106 % of control
T/C (dose: 1.6 mg/kg/injection, schedule: Q01DX005 (ip), vehicle: Klucel (hydroxypropylcellulose) (HPC)): 107 % of control
T/C (dose: 2.0 mg/kg/injection, schedule: Q01DX005 (ip), vehicle: Klucel (hydroxypropylcellulose) (HPC)): 109 % of control
T/C (dose: 16.0 mg/kg/injection, schedule: Q01DX005 (ip), vehicle: Klucel (hydroxypropylcellulose) (HPC)): 117 % of control

O=C(O)C12CC3CC(CC(C3)C1)C2.O=C(O)C12CC3CC(CC(C3)C1)C2.O=C(O)C12CC3CC(CC(C3)C1)C2.O=C(O)C12CC3CC(CC(C3)C1)C2.[Rh].[Rh]
T/C [6]: 94 % of control
T/C [7]: 91 % of control and 93 % of control
T/C [8]: 100 % of control and 88 % of control
T/C (dose: 50.0 mg/kg/injection, schedule: Q01DX009 (ip), vehicle: suspension in saline): 101 % of control
T/C [9]: 91 % of control
T/C (dose: 100.0 mg/kg/injection, schedule: Q01DX009 (ip), vehicle: suspension in saline): 120 % of control
T/C (dose: 200.0 mg/kg/injection, schedule: Q01DX009 (ip), vehicle: suspension in saline): 108 % of control

Cc1ccc(C[N+](C)(C)C)cc1
T/C (dose: 12.5 mg/kg/injection, schedule: Q01DX009 (ip), vehicle: saline with Tween-80): 107 % of control
T/C [10]: 100 % of control
T/C [11]: 100 % of control and 106 % of control

Clc1ccc2[nH]c3c(c2c1)CCCC3
T/C (dose: 200.0 mg/kg/injection, schedule: Q04DX003 (ip), vehicle: saline with Tween-80): 94 % of control

Cn1[nH]c2[nH]c(=S)sc(=S)c2c1=O
T/C (dose: 25.0 mg/kg/injection, schedule: Q01DX005 (ip), vehicle: Klucel (hydroxypropylcellulose) (HPC)): 109 % of control
T/C [3]: 109 % of control
T/C [4]: 98 % of control
T/C [5]: 104 % of control

Cc1oc2ccccc2c(=O)c1CO
T/C [12]: 104 % of control
T/C [13]: 100 % of control
T/C [14]: 100 % of control

O=[N+]([O-])C1CCC(N=Nc2c(O)ccc3ccccc23)CC1 (centres undefined)
T/C [12]: 96 % of control
T/C [13]: 99 % of control
T/C [14]: 99 % of control

COC1=CS(C)(=O)=CC(SC)=C1C#N (centres undefined)
T/C (dose: 50.0 mg/kg/injection, schedule: Q04DX002 (ip), vehicle: Klucel (hydroxypropylcellulose) (HPC)): 99 % of control
T/C [1]: 99 % of control
T/C [2]: 98 % of control

CCCCCCCCC1CCC(=O)NC1=O (centres undefined)
T/C [12]: 112 % of control
T/C [13]: 104 % of control
T/C [14]: 93 % of control

CC1=C2C=CCC[C@H](C)[C@H]2CC1
T/C (dose: 3.5 mg/kg/injection, schedule: Q01DX005 (ip), vehicle: water): 95 % of control
T/C (dose: 7.0 mg/kg/injection, schedule: Q01DX005 (ip), vehicle: water): 95 % of control
T/C (dose: 14.0 mg/kg/injection, schedule: Q01DX005 (ip), vehicle: water): 92 % of control
T/C (dose: 28.0 mg/kg/injection, schedule: Q01DX005 (ip), vehicle: water): 94 % of control

CC(=O)Oc1c(C)[nH]ccc1=O
T/C [7]: 103 % of control and 104 % of control
T/C [8]: 107 % of control and 112 % of control and 116 % of control
T/C [9]: 116 % of control
T/C [15]: 154 % of control
T/C (dose: 400.0 mg/kg/injection, schedule: Q01DX009 (ip), vehicle: saline): 152 % of control and 161 % of control and 179 % of control
T/C (dose: 800.0 mg/kg/injection, schedule: Q01DX009 (ip), vehicle: saline): 180 % of control

COc1ccc2cc1-c1cc(ccc1O)CCC(O)CC1CCCC(CC(OC(C)=O)CC2)N1 (centres undefined)
T/C (dose: 15.0 mg/kg/injection, schedule: Q01DX009 (ip), vehicle: Klucel (hydroxypropylcellulose) (HPC)): 107 % of control
T/C (dose: 30.0 mg/kg/injection, schedule: Q01DX009 (ip), vehicle: Klucel (hydroxypropylcellulose) (HPC)): 100 % of control
T/C (dose: 60.0 mg/kg/injection, schedule: Q01DX009 (ip), vehicle: Klucel (hydroxypropylcellulose) (HPC)): 100 % of control

CCOC1=CC(=O)/C(=C/O[Si](C)(C)C)CC1
T/C [11]: 103 % of control
T/C [16]: 99 % of control

Cc1ccc2ccccc2[n+]1CC(=O)c1ccc2c(c1)OCO2
T/C [17]: 110 % of control
T/C [18]: 105 % of control
T/C (dose: 200.0 mg/kg/injection, schedule: Q01DX005 (ip), vehicle: saline with Tween-80): 103 % of control

CCCCNC(C)(C)C(SS)c1ccc(C(F)(F)F)cc1 (centres undefined)
T/C (dose: 50.0 mg/kg/injection, schedule: Q04DX003 (ip), vehicle: other): 100 % of control
T/C (dose: 100.0 mg/kg/injection, schedule: Q04DX003 (ip), vehicle: other): 104 % of control

O=C1CCCc2c1ccn2Cc1ccccc1
T/C (dose: 25.0 mg/kg/injection, schedule: Q04DX003 (ip), vehicle: Klucel (hydroxypropylcellulose) (HPC)): 105 % of control
T/C (dose: 50.0 mg/kg/injection, schedule: Q04DX003 (ip), vehicle: Klucel (hydroxypropylcellulose) (HPC)): 100 % of control
T/C [19]: 100 % of control
T/C [20]: 99 % of control

CCO[Si](CCCCl)(OCC)OCC
T/C [21]: 100 % of control
T/C [22]: 106 % of control
T/C [23]: 118 % of control

CN1CCc2cccc3c2[C@H]1Cc1ccc(O)c(O)c1-3
T/C [3]: 95 % of control
T/C [4]: 92 % of control

CC(=O)C(C)(CC#N)C(CC=O)CCC#N (centres undefined)
T/C [12]: 111 % of control

Cc1ccc(C(=O)NC2c3ccccc3Oc3ccccc32)cc1
T/C [17]: 90 % of control
T/C [18]: 86 % of control

CN(CCCc1nc2ccccc2[nH]1)N=O
T/C [19]: 100 % of control
T/C [20]: 101 % of control
T/C (dose: 400.0 mg/kg/injection, schedule: Q04DX003 (ip), vehicle: Klucel (hydroxypropylcellulose) (HPC)): 100 % of control

Cc1cc2c(cc1S(=O)(=O)O)C1C(C3C2C2(Cl)C(Cl)=C(Cl)C3(Cl)C2(Cl)Cl)C2(Cl)C(Cl)=C(Cl)C1(Cl)C2(Cl)Cl (centres undefined)
T/C [8]: 101 % of control
T/C [9]: 92 % of control
T/C [15]: 92 % of control

CC1OC1C(=O)Sc1ccccc1 (centres undefined)
T/C [6]: 105 % of control
T/C [7]: 110 % of control
T/C [8]: 106 % of control

N#CC1(C#N)OC1(C#N)c1ccccc1 (centres undefined)
T/C (dose: 3.0 mg/kg/injection, schedule: Q01DX009 (ip), vehicle: saline with Tween-80): 100 % of control
T/C (dose: 6.0 mg/kg/injection, schedule: Q01DX009 (ip), vehicle: saline with Tween-80): 100 % of control
T/C (dose: 12.0 mg/kg/injection, schedule: Q01DX009 (ip), vehicle: saline with Tween-80): 100 % of control

CS(=O)(=O)OCCN(CCOS(C)(=O)=O)c1ccc(C(=O)O)cc1
T/C [10]: 159 % of control
T/C [11]: 168 % of control and 190 % of control
T/C [16]: 175 % of control
T/C (dose: 132.0 mg/kg/injection, schedule: Q04DX003 (ip), vehicle: saline with Tween-80): 159 % of control

CCON(C=Nc1ccc(Cl)c(Cl)c1)c1ccc(Cl)c(Cl)c1
T/C [8]: 103 % of control
T/C [9]: 102 % of control
T/C [15]: 91 % of control

O=[N+]([O-])c1ccc(N/N=C\C2OC3O[C@@H](C(Cl)(Cl)Cl)OC3C2O)c([N+](=O)[O-])c1 (some centres undefined)
T/C (dose: 200.0 mg/kg/injection, schedule: Q04DX002 (ip), vehicle: saline with Tween-80): 87 % of control

CCOC(=O)CNC(=O)Oc1ccc(Cl)cn1
T/C [21]: 102 % of control
T/C [22]: 97 % of control
T/C [23]: 102 % of control
